Results from patent US20140004209A1, “AUTOPHAGY INDUCER AND INHIBITOR COMBINATION THERAPY FOR THE TREATMENT OF NEOPLASMS” (GENENTECH, INC., priority 2010, published 2014).
Where two headings read alike, the source gives them in different places.

How the values were obtained:
PC3 cells [1] = experiment: Mitochondrial membrane potential (MitoPT dye) in PC3 cells; format: cell-based, human; settings: for mitochondrial membrane potential, II-4 (Akti-1/2) and CQ: 3 μM Akti-1/2, 10 μM CQ
Procedure: FIG. 21. […] Images at 48 h are shown. […] Merged images between red and green channels are also shown (MitoPT-M). Scale bar: 20 μm. (B) Percentage of cells showing red punctate stains and diffuse green stains from treatments described in (A). >86 cells from two random fields of fluorescent images of each treatment were counted. Error bars represent standard deviations between the two fields. […] Total fluorescence intensity from all cells was collected using the Isocyte (Blueshift Biotechnologies), a laser scanning imager. Green fluorescence intensity is collected with a 488 nm laser and a 510-540 nm band pass filter, and normalized to cell number determined by Hoechst staining using a 405 nm laser and a 430-480 nm band pass filter. Error bars, standard deviation between two independent experiments. (D) Representative images of the green ROS signals and bright field (BF) taken under a Nikon TE300 inverted microscope. […] Scale bar: 20 μm.
Cell Culture and Reagents: The PTEN^−/− and PTEN^+/+ MEFs were maintained as previously described (Sun, H., R. Lesche, D. M. Li, J. Liliental, H. Zhang, J. Gao, N. Gavrilova, B. Mueller, X. Liu, and H. Wu, (1999), PTEN modulates cell cycle progression and cell survival by regulating phosphatidylinositol 3,4,5,-trisphosphate and Akt/protein kinase B signaling pathway. Proc Natl Acad Sci USA. 96:6199-204). The PC3 and U87MG cells were maintained at 37° C. and 5% CO2 in DMEM/Ham's F-12 (1:1) containing 10% tetracycline-free fetal bovine serum. II-4 was from Calbiochem (Akt inhibitor VIII) (Barnett, S. F., D. Defeo-Jones, S. Fu, P. J. Hancock, K. M. Haskell, R. E. Jones, J. A. Kahana, A. M. Kral, K. Leander, L. L. Lee, J. Malinowski, E. M. McAvoy, D. D. Nahas, R. G. Robinson, and H. E. Huber, (2005), Identification and characterization of pleckstrin-homology-domain-dependent and isoenzyme-specific Akt inhibitors. Biochem J. 385:399-408). […] Image-iT LIVE Green Reactive Oxygen Species Detection Kit was purchased from Molecular Probes. MitoPT Mitochondria Permeability Transition Detection Kit was purchased from Immunochemistry Technologies, LLC.

PC3 cells [2] = experiment: Mitochondrial superoxide (MitoSOX red) and cellular ROS in PC3 cells; format: cell-based, human
Procedure: (B) PC3 cells treated as in A were stained with the Image-iT LIVE green ROS Detection kit and examined by fluorescence microscopy at 24 h. […] (C) Quantification of MitoSOX red and ROS green fluorescence intensities by flow cytometry at 24 h. Cells were treated as in A and B. Error bars represent SEM (n=3).
Because mitochondria are the primary intracellular source of superoxide (O2^−) generation, we analyzed O2^− production using MitoSOX red, an O2^− indicator that accumulates in the mitochondria as a function of membrane potential and fluoresces upon oxidation and subsequent binding to DNA.

PTEN−/− and PTEN+/+ MEFs = experiment: Viability of PTEN−/− and PTEN+/+ MEFs (PI exclusion); format: cell-based, mouse; settings: 5 μM each, 1% FBS
Procedure: MEFs were treated with 5 μM each of II-4 and CQ under 1% FBS, and cell viability was determined at days 0, 2, and 3 by PI exclusion. Error bars represent SEM (n=3). (B) Mean tumor volumes of PC3 xenograft tumors treated daily with vehicle (Veh), Dox only, CQ only, or both Dox and CQ over a 28-d period. The vehicle and vehicle+CQ groups were followed for up to 18 d before terminated because of weight loss from the tumor burdens. Error bars represent SEM (n=10 tumors in each cohort). (C) Scatterplot of the tumor volumes in the Dox only and Dox+CQ groups on day 28 (P=0.05). Horizontal bars indicate mean tumor volumes. Numbers of tumors with complete remission (CR, dashed line) are indicated for each group. […]
Cell viability and cell cycle analysis. Cell number and viability was measured using trypan blue exclusion assay using a Vi-Cell Analyzer (Beckman Coulter), or labeled with 1 μg/ml PI in PBS/1% BSA followed by cytofluorometric analysis with a fluorescence-activated cell sorter (FACS) (Becton Dickinson). […] Caspase activation was analyzed using a Caspase-Glo 3/7 Assay kit (Promega). For cell cycle analysis, cells were fixed with drop-wise addition of chilled 70% ethanol, washed with PBS and resuspended in staining solution containing 50 μg/ml PI and 60 units of RNAse A. DNA content was analyzed by flow cytometry using the FlowJo and ModFit software (Becton Dickinson).

PC3 cells [3] = experiment: Microarray analysis of autophagy gene expression in PC3 cells; format: cell-based, human; settings: 1 or 5 μM for 6 or 24 hours, normalized to DMSO
Procedure: PC3 cells were induced to express shRNA to indicated Akt isoforms for 72 hours by Doxycycline, RNA was extracted from both Dox treated (Dox+) or untreated control (Dox−) cells. Microarray analysis was carried out using Affymetrix chips. Ratios of the expression levels of each autophagy gene from Dox+ and Dox− samples are shown. Data are mean values from 3 independent experiments.
RNA was extracted from the cells. Microarray analysis was carried out using Affymetrix chips. Expression levels of each autophagy gene are normalized to the DMSO controls. Data are mean values from 3 independent experiments.

Compound: O=c1[nH]c2ccccc2n1C1CCN(Cc2ccc(-c3nc4cc5nc[nH]c5cc4nc3-c3ccccc3)cc2)CC1 [II-4, 1-(1-(4-(7-phenyl-1H-imidazo[4,5-g]quinoxalin-6-yl)benzyl)piperidin-4-yl)-1H-benzo[d]imidazol-2 (3H)-one]
- mitochondrial membrane potential, II-4 (Akti-1/2) and CQ (PC3 cells [1]): almost complete loss of mitochondrial potential
- mitochondrial membrane potential, II-4 (Akti-1/2) and CQ (PC3 cells [1]; listed as Akti-1/2): CQ enhanced Akti-1/2-induced mitochondria depolarization
- mitochondrial membrane potential, agent alone (PC3 cells [1]; 0.5% FBS): caused a decrease in mitochondrial membrane potential
- MitoSOX fluorescence, agent alone (PC3 cells [2]): increased MitoSOX fluorescence within 6 h
- cellular ROS levels, II-4 (Akti-1/2) with CQ (PC3 cells [2]): cotreatment with CQ caused a prolonged increase in ROS levels
- cellular ROS signal, agent alone (PC3 cells [2]): attenuated within 48 h
- MitoSOX fluorescence, II-4 and CQ (PC3 cells [2]; 3 μM II-4, 10 μM CQ): significant increase in fluorescence intensity
- cellular ROS levels, II-4 (Akti-1/2) with CQ (PC3 cells [2]; listed as Akti-1/2): caused a prolonged increase in vacuolar fluorescence
- cellular ROS signal, agent alone (PC3 cells [2]; listed as Akti-1/2): first induced a homogeneous increase in ROS level, but by 48 hours the fluorescence became significantly reduced
- sensitivity of PTEN−/− vs PTEN+/+ MEFs to combined II-4 and CQ (PTEN−/− and PTEN+/+ MEFs): significantly more sensitive
- autophagy gene expression (PC3 cells [3]): induce autophagy gene expression
